Measurements: US8835403B2, “Algin oligosaccharides and the derivatives thereof as well as the manufacture and the use of the same” (priority 2004, dated 2014)

Assays:
ChAT = test: Cerebral cortex ChAT activity of Aβ1-40-induced AD mice; type: in vivo
MDA = MDA content of cerebral cortex and hippocampus of Aβ1-40-induced AD mice; type: in vivo
GSH-PX = GSH-PX activity in cerebral cortex and hippocampus of Aβ1-40-induced AD mice; type: in vivo
Method: (§1) Following the behavioral test, rats are decapitated. Cerebral cortex and hippocampus are dissected on ice immediately, and stored at −80° C. after quick freezing in liquid nitrogen for 1 hour. MDA, SOD, GSH-PX, Na^+, K^+-ATPase, AchE and CHAT activities in the brain regions are determined using the respective kits. The homogenates of cerebral cortex and hippocampus are prepared with saline with a final concentration of 10% and 5%. The supernatant were obtained after centrifuging at 3600 rpm to test MDA, CuZn-SOD, GSH-PX, Na^+K^+-ATPase, AchE, and CHAT activities. The activity of ChAT is determined with isotope-labeled method. The other indexes and amount of total proteins are tested with the respective kits supplied by Nanjing Jiancheng Bioengineering Institute.
The GSH-PX activity in cerebral cortex and hippocampus is decreased after usage of Aβ with significant difference to the control group in hippocampus (p<0.05).

Na+, K+-ATPase = Na+, K+-ATPase activity in cerebral cortex and hippocampus of Aβ1-40-induced AD mice; type: in vivo
Method: as §1

[1] = system: primary cerebral cortex neurons of rat; test: Protection of primary neurons impaired by aged Aβ25-35 (MTT); type: cell-based; details: 30 μM aged Aβ25-35 24 h, Aβ alone 54.5±8.9%
Method: The primary cerebral cortex neurons of rat are cultured as the method of reference (Banker G A, et al., Rat hippocampal neurons in dispersed cell culture. Brain Res, 1977, 126:397-425). The cells cultured for 1 week are used in this experiment. That is to say, on the 8th day the cells are pretreated with a series of concentrations of 6-mer (final concentration of 0, 10, 50, 100 μg/ml) for 24 h, followed by the addition of aged Aβ25-35 (Firstly resolved in distilled water with a concentration of 1 mg/ml, then stayed at 37° C. for 7 days to get aged Aβ25-35 and stored at −20° C. for use) with a final concentration of 30 μM. After 24 h at 37° C., 10 μl of MTT with a concentration of 5 mg/ml is added. After 4 h at 37° C., the supernatant is removed and 150 μl of DMSO is added. Then the absorbance at 570 nm (630 nm as reference) is recorded with an ELISA reader (Rainbow, TECAN, Austria).

SH-SY5Y cells = test: Apoptosis of SH-SY5Y induced by Aβ25-35 (propidium iodide flow cytometry); type: cell-based; details: 30 μM aged Aβ25-35 48 h, Aβ alone 24.8±1.9%
Method: SH-SY5Y cells are incubated in 6-well plates at a density of 2×10^5 cells per well. The day after plating, cells are pretreated with varying concentrations (0, 50, 100 μg/ml) of 6-mer for 24 h, followed by the addition of 30 μM aged Aβ25-35 (purchased from Sigma. Co.). After 48 h at 37° C., cells are digested, collected, washed, centrifuged at 1200 rpm and incubated with […] of a mixture of 5 mg/ml propidium iodide (Hyclone Co.) and 100 U/ml RNase (Hyclone Co.). Then the cells are measured by flow cytometry (BD Co., US), with 8000 cells per sample

[2] = system: apoptotic cascade induced by Aβ; test: Apoptotic cascade markers induced by Aβ; type: cell-based
Aβ1-40 [3] = target: T1, Aβ1-40 (Homo sapiens, UniProt P05067); test: Fibril formation of Aβ1-40, Th-T fluorescence; type: biochemical; details: 24 h
T1 sequence (P05067 672-711 limits assumed): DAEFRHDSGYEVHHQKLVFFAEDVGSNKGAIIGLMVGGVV
Method: Fresh Aβ1-40 is incubated alone or with 6-mer (final concentration of 10, 50, and 100 μg/ml, respectively) at 37° C. for 24 h. After incubation, Th-T is added and fluorescence intensity is monitored at […].

Aβ1-40 [4] = target: T1, Aβ1-40; test: Fibril formation of Aβ1-40 studied with TEM; type: biochemical
Aβ1-40 [5] = target: T1, Aβ1-40; test: Conformation of Aβ1-40 by CD spectra; type: biochemical; details: 6-mer 100 μg/ml, Aβ1-40 250 μg/ml, 37° C., 12 h (FIG. 11C)
Method: CD spectra (J-[…], JASCO, Japan) of monomeric Aβ1-40 (250 μg/ml in TBS (100 mM Tris, 50 mM NaCl, pH7.4)) incubated at 37° C. for 12 h is mainly characterized by β-sheet secondary structure (FIG. 11A).

Aβ = Aβ (Homo sapiens, UniProt P05067); test: Binding site of 6-mer on Aβ (further studies)
[6] = system: human pancreatic beta-cells cell line NIT; test: Protection of pancreatic beta-cell line NIT impaired by amylin (MTT); type: cell-based; details: 6-mer 10, 50, 100 μg/ml 24 h pretreatment, 30 μM aged amylin 48 h (FIG. 12)
Method: The human pancreatic beta-cells cell line NIT is cultured with DMEM medium containing 10% FBS. The cells are incubateded into 96-well plates in density of 1×10^4 cells/well. The day after plating, they are pretreated with varying concentrations of 6-mer (final concentration of 0, 10, 50, 100 μg/ml) for 24 h, followed by the addition of aged amylin with a final concentration of 30 μM. After 48 h at 37° C., the survival of the cells is measured by MTT method.

[7] = 50 μg/ml 6-mer 24 h pretreatment
[8] = 100 μg/ml 6-mer 24 h pretreatment

O=C(O)C1OC(OC2C(C(=O)O)OC(OC3C(C(=O)O)OC(OC4C(C(=O)O)OC(OC5C(C(=O)O)OC(OC6C(C(=O)O)OC(O)C(O)C6O)C(O)C5O)C(O)C4O)C(O)C3O)C(O)C2O)C(O)C(O)C1O (centres unmarked) [6-mer, mannuronic hexasaccharide]
ChAT activity (pmol/mg prot./min) (ChAT; 15 mg/kg): 90.94 ± 3.77 pmol/mg prot./min | ChAT activity (pmol/mg prot./min) (ChAT; 30 mg/kg): 99.98 ± 5.07 pmol/mg prot./min | ChAT activity (pmol/mg prot./min) (ChAT; 60 mg/kg): 94.69 ± 5.83 pmol/mg prot./min | MDA content (nmol/ml) cerebral cortex (MDA; 15 mg/kg): 1.79 ± 0.15 nmol/mL | MDA content (nmol/ml) cerebral cortex (MDA; 30 mg/kg): 1.87 ± 0.18 nmol/mL | MDA content (nmol/ml) cerebral cortex (MDA; 60 mg/kg): 1.47 ± 0.11 nmol/mL | MDA content (nmol/ml) hippocampus (MDA; 15 mg/kg): 4.28 ± 0.82 nmol/mL | MDA content (nmol/ml) hippocampus (MDA; 30 mg/kg): 2.48 ± 0.43 nmol/mL | MDA content (nmol/ml) hippocampus (MDA; 60 mg/kg): 2.18 ± 0.43 nmol/mL | GSH-PX (U/mg prot.) cerebral cortex (GSH-PX; 15 mg/kg): 8.53 ± 0.86 U/mg prot. | GSH-PX (U/mg prot.) cerebral cortex (GSH-PX; 30 mg/kg): 7.12 ± 1.10 U/mg prot. | GSH-PX (U/mg prot.) cerebral cortex (GSH-PX; 60 mg/kg): 10.75 ± 1.80 U/mg prot. | GSH-PX (U/mg prot.) hippocampus (GSH-PX; 15 mg/kg): 4.13 ± 0.58 U/mg prot. | GSH-PX (U/mg prot.) hippocampus (GSH-PX; 30 mg/kg): 4.25 ± 0.54 U/mg prot. | GSH-PX (U/mg prot.) hippocampus (GSH-PX; 60 mg/kg): 4.81 ± 0.95 U/mg prot. | ATPase activity (μmol Pi/mg prot./hour) cerebral cortex (Na+, K+-ATPase; 15 mg/kg): 1.08 ± 0.06 μmol Pi/mg prot./hour | ATPase activity (μmol Pi/mg prot./hour) cerebral cortex (Na+, K+-ATPase; 30 mg/kg): 1.09 ± 0.08 μmol Pi/mg prot./hour | ATPase activity (μmol Pi/mg prot./hour) cerebral cortex (Na+, K+-ATPase; 60 mg/kg): 1.08 ± 0.05 μmol Pi/mg prot./hour | ATPase activity (μmol Pi/mg prot./hour) hippocampus (Na+, K+-ATPase; 15 mg/kg): 2.10 ± 0.29 μmol Pi/mg prot./hour | ATPase activity (μmol Pi/mg prot./hour) hippocampus (Na+, K+-ATPase; 30 mg/kg): 2.07 ± 0.23 μmol Pi/mg prot./hour | ATPase activity (μmol Pi/mg prot./hour) hippocampus (Na+, K+-ATPase; 60 mg/kg): 2.52 ± 0.25 μmol Pi/mg prot./hour | survived rate ([1]; 10 μg/ml 6-mer 24 h pretreatment): 72.0±11.2% | survived rate [1, 7]: 77.1±8.1% | survived rate [1, 8]: 82.3±11.6% | percentage of hypodiploid cells (SH-SY5Y cells; [7]): 10.2±1.3% | percentage of hypodiploid cells (SH-SY5Y cells; [8]): 5.1±0.7% | expression of Bcl-2 [2]: up-regulating | expression of Caspase-3 [2]: down-regulating | expression of P53 [2]: down-regulating | overload of intracellular calcium ion and ROS accumulation [2]: reversing | Th-T fluorescence intensity (Aβ1-40 [3]; 10 μg/ml 6-mer with fresh Aβ1-40, 37° C.): 10.46±0.94 | Th-T fluorescence intensity (Aβ1-40 [3]; 50 μg/ml 6-mer with fresh Aβ1-40, 37° C.): 9.18±1.32 | Th-T fluorescence intensity (Aβ1-40 [3]; 100 μg/ml 6-mer with fresh Aβ1-40, 37° C.): 7.81±1.38 | fibril formation of Aβ1-40 (TEM) (Aβ1-40 [4]; incubation 24 h and 48 h (FIG. 9)): significantly inhibit the fibril formation of Aβ1-40 | fibril formation of Aβ1-40 facilitated by heparin (TEM) (Aβ1-40 [4]; with heparin, 24 h and 48 h (FIG. 9)): significant inhibitory effect | β-sheet formation of monomeric Aβ1-40 (CD) (Aβ1-40 [5]): prevents the β-sheet formation | binding site on Aβ25-35 (Aβ): Ser26˜Lys28 | survived cells impaired by amylin [6]: increase the survived cells impaired by amylin in a dose-dependent manner
